Source: patent publication US20260217701A1, “SELECTIVE BET INHIBITORS AND USES THEREOF” (Tay Therapeutics Limited, priority 2022, published 2026)

Columns and labels:
Type in all cases: in vivo, C57BI/6J mice
[1] = system: idiopathic pulmonary fibrosis (bleomycin); test: Bleomycin IPF model: functional lung volume by micro-CT; parameters: Functional Lung Volume, Mean: unit not given here; conditions: Day 21
Experimental: Animals were acclimated for two weeks prior to study initiation, and were randomized into the experimental groups outlined in Table 32. Intratracheal (IT) administration of Bleo or PBS control was conducted at the start of the study (Day 0). […] Following administration of Bleo, animals (n=10/group) were included in the study if they met the following guidelines on Day 7: […] Micro-CT imaging was also performed on Day 7 to determine relative fibrosis and on Day 21. […] Images were acquired with a respiratory gated technique with the following parameters: X-ray tube voltage: 90 KV; X-ray tube current: 88 μA; total scan time: 4 minutes. The system was calibrated monthly with standard phantoms for noise, uniformity, low contrast, and resolution to ensure consistency.

[2] = system: hydroxyproline; test: Bleomycin IPF model: hydroxyproline content in lung lysates; parameters: Hydroxyproline Levels, Mean: unit not given here; conditions: Bleo + Pirfenidone (300 mg/kg) OG QOD from D7
Experimental: (§1) Male C57BI/6J mice, aged 12 weeks with an approximate weight of 25-30 g were obtained from Jackson Laboratories (Bar Harbor, ME). Animals were acclimated for two weeks prior to study initiation, and were randomized into the experimental groups outlined in Table 32.
(§2) Intratracheal (IT) administration of Bleo or PBS control was conducted at the start of the study (Day 0). […] Animals were weighed on Day 0, and indexed boluses of PBS control (Group 1) or Bleo (Groups 2-6) were delivered by IT administration.
(§3) Following administration of Bleo, animals (n=10/group) were included in the study if they met the following guidelines on Day 7: (1) a predictable 5% loss in body weight, and (2) the presence of fibrotic pulmonary lesions, detected by micro-CT imaging. 10 animals from Group 1 additionally proceeded as controls. Animals that continued in the study on Day 7 received an oral gavage (OG) administration of PBS, Compound A (1 mg/kg, 3 mg/kg, 10 mg/kg), or Pirfenidone (300 mg/kg), as outlined in Table 31 in 25 μL boluses every other day (QOD), starting on Day 7. Compound A was formulated in 5% (v/v) DMSO/15% (v/v) PEG 400/80% (v/v) E-TPGS in purified water.
Animals were euthanized on Day 21 following Micro-CT imaging, and the right lung was collected for biochemical analysis, and the left lung was inflation-fixed for morphological assessments. A resection of the right lung was weighed and homogenized to determine total hydroxyproline levels by colorimetric assay, and the remaining lung lysate was saved for future analyses.

[3] = system: idiopathic pulmonary fibrosis (bleomycin); test: Bleomycin IPF model: lung histology, Masson's Trichrome with Ashcroft scoring
Experimental: Animals were acclimated for two weeks prior to study initiation, and were randomized into the experimental groups outlined in Table 32. Intratracheal (IT) administration of Bleo or PBS control was conducted at the start of the study (Day 0). […] Following administration of Bleo, animals (n=10/group) were included in the study if they met the following guidelines on Day 7: […] A resection of the right lung was weighed and homogenized to determine total hydroxyproline levels by colorimetric assay, and the remaining lung lysate was saved for future analyses. For the morphological assessments, the left lung was inflation-fixed at 25 cm of water pressure with 4% paraformaldehyde in PBS for 1 minute, processed, and then sectioned. Morphological analysis of the lung was conducted using H&E-stained slides. Additional histologic stains for morphological analyses included Masson's Trichrome staining with Ashcroft scoring to determine severity of fibrosis.

[4] = Bleomycin IPF model: body weight and mortality; parameters: Mean Body Weight Change: unit not given here; conditions: for Mean Body Weight Change: Bleo + Pirfenidone (300 mg/kg) OG QOD from D7
Experimental: as §1, §2
as §3, with “water. […]” for “water.”

[5] = system: idiopathic pulmonary fibrosis (bleomycin); test: Bleomycin IPF model: oxygen saturation (pulse oximetry); conditions: Bleo + Pirfenidone (300 mg/kg) OG QOD from D7
Experimental: as §1, §2, §3
Body weights were obtained at Day 0 at the start of the study, and again at Day 7 to determine if an animal continued in the study. Body weight was measured daily from Day 7 until Day 21, and oxygen saturation was measured by a pulse oximetry (MouseOx) system QOD from Day 7 until study completion on Day 21, and results were plotted and analyzed by Kaplan-Meier plots.

[6] = Bleo + Pirfenidone (300 mg/kg) OG QOD from D7

## Cc1ccc(=O)n(-c2ccccc2)c1 [Pirfenidone, reference compound]
[1]; [6]
  Functional Lung Volume, Mean: 445.7025
[1]; Group 6, Pirfenidone 300 mg/kg
  Functional lung volume relative to Group 2: significantly increased
[2]
  Hydroxyproline Levels, Mean: 0.055
[3]; [6]
  Ashcroft Scoring, Max: 6
  Ashcroft Scoring, Mean: 5.125
  Ashcroft Scoring, Min: 4
[3]; Day 21, Group 6, 300 mg/kg
  Ashcroft scores relative to IPF control group: significantly reduced Ashcroft scores
[3]; Group 5 (Compound A 10) and Group 6 (Pirfenidone)
  Fibrosis in lung tissue (Masson's Trichrome) compared to Group 2 (Bleo+Saline): qualitatively diminished
[4]; Day 1
  Mean Body Weight Change: 2.308
[4]; Day 2
  Mean Body Weight Change: −0.484
[4]; Day 3
  Mean Body Weight Change: 0.051
[4]; Day 4
  Mean Body Weight Change: 4.604
[4]; Day 5
  Mean Body Weight Change: −5.992
[4]; Day 6
  Mean Body Weight Change: −9.221
[4]; Day 7
  Mean Body Weight Change: −11.372
[4]; Day 8
  Mean Body Weight Change: −14.446
[4]; Day 9
  Mean Body Weight Change: −14.694
[4]; Day 10
  Mean Body Weight Change: −15.574
[4]; Day 11
  Mean Body Weight Change: −14.209
[4]; Day 12
  Mean Body Weight Change: −13.437
[4]; Day 13
  Mean Body Weight Change: −12.258
[4]; Day 14
  Mean Body Weight Change: −12.644
[4]; Day 15
  Mean Body Weight Change: −13.627
[4]; Day 16
  Mean Body Weight Change: −13.391
[4]; Day 17
  Mean Body Weight Change: −13.251
[4]; Day 18
  Mean Body Weight Change: −15.138
[4]; Day 19
  Mean Body Weight Change: −14.921
[4]; Day 20
  Mean Body Weight Change: −15.674
[4]; Day 21
  Mean Body Weight Change: −15.557
[4]; Compound A (all doses tested), Pirfenidone (300 mg/kg)
  Body weight compared with Bleo+Saline treated animals: No significant difference
[5]; Day 7
  Mean Oxygen Saturation: 81.08
[5]; Day 9
  Mean Oxygen Saturation: 84.55
[5]; Day 11
  Mean Oxygen Saturation: 83.32
[5]; Day 13
  Mean Oxygen Saturation: 84.28
[5]; Day 15
  Mean Oxygen Saturation: 87.03
[5]; Day 17
  Mean Oxygen Saturation: 87.08
[5]; Day 19
  Mean Oxygen Saturation: 89.13
[5]; Day 21
  Mean Oxygen Saturation: 89.18
